# Results published in patent US20230322861A1, “SYNTHETIC PEPTIDES FOR DISSOLVING TAU INCLUSIONS” (The Trustees of Princeton University, priority 2022, published 2023).
# B1: Human SRRM2 Isoform 1 Fragment 26 (F26) WT (peptide)
# chain: SSSSSSGSSSSDSEGSSLPVQPEVALKRVPSPTPAPKEAVREGRPPEPTPAKRKRRSSSSSSSSSSSSSSSSSSSSSSSS
# notes: 5, mCherry-tagged
# Experiments:
# Type in all cases: cell-based
# [1] = system: tau aggregate-containing cells (strain DS18); assay: curing of tau aggregates in colonies of tau aggregate-containing cells expressing mCherry or SubF-mCherry; conditions: expressed for a week, passaged at low density, imaged after 7 days, 14 fields of view; representative field FIGS. 3A-3B
# Experimental: FIGS. 3A-3B are images of representative fields of view of mCherry (3A) or SubF-mCherry (3B) in tau aggregate-containing cell colonies.
# As an example of this, mCherry or SubF-mCherry were expressed in tau aggregate-containing cells (strain DS18) for a week. Cells were then passaged into a new dish at low density. After 7 days, 14 fields of view were imaged for each condition, and the fraction of colonies cured of tau aggregates was determined.
# tau inclusions [2] = assay: co-expression of fluorescent-tagged tau inclusions with mCherry-tagged synthetic peptide sequences; probability of cells containing a tau inclusion; conditions: cells expressing peptide-mCherry fusion; FIGS. 2H, 2J, 2K
# tau inclusions [3] = assay: as above; conditions: at different concentrations of co-expressed peptide-mCherry fusion; FIGS. 2A-2K
# Experimental: Various peptide sequences were tested by co-expressing fluorescent-tagged tau inclusions with mCherry-tagged synthetic peptide sequences, and quantifying a probability of cells containing a tau inclusion at different synthetic peptide concentrations.
Molecule,colonies with / cured of tau aggregates [1],tau-negative aggregates (aggregates formed absent the presence of tau) (tau inclusions [2]),probability of cells containing a tau inclusion (tau inclusions [3])
"Sub F-mCherry: SubF sequence (KRKRR followed by 42 serines, SEQ ID NO. 3) fused to mCherry (KRKRRSSSSSSSSSSSSSSSSSSSSSSSSSSSSSSSSSSSSSSSSSS)",many of the 27 colonies lack aggregates in all cells,–,–
"CK2 (SDSDS) (ASSSDSDSSSSSSSSSSSSSSSSSSSSSSSSSSSSSSSSSSSSSSSSSSSSA) [#11, 14, mCherry-tagged]",–,without forming tau-negative aggregates,reduces tau inclusion
"SR Kinase (SRSRS) (ARSRSRSSSSSSSSSSSSSSSSSSSSSSSSSSSSSSSSSSSSSSSSSSSSSA) [#10, 13, mCherry-tagged]",–,tau-negative aggregates were noted,"reducing tau inclusions, relatively rapidly"
S52 (Pure Polyserine) [#8],–,tau-negative aggregates were noted,no decrease in tau inclusions was seen
"SubF Scramble (SSSRSSSSSKSSSSSSASSSSPSSASSSSSRSSSSPSSSSSSKSSSSSRSSS) [#9, 12, mCherry-tagged]",–,–,no reduction in tau inclusions was seen
B1,–,–,reduce the probability of tau inclusions to zero
